{"source": "paper PMC11091220", "about": "“Metabolism-driven in vitro/in vivo disconnect of an oral ERɑ VHL-PROTAC” (Communications Biology, 2024)", "key": {"[1]": {"assay": "Mouse pharmacokinetics, i.v./oral and enabling formulations", "format": "in vivo", "experimental": "(*) AUC0-6 (data BLQ beyond 6 hours). TEXT PRINTED IN THE PICTURE: (e) Formulation SF: Dose normalised Cmax (μM): 0.009 (Oral dose (mg/kg): 1); Dose normalised AUC0-12 (μM.h): 0.02* (Oral dose (mg/kg): 1) | (e) Formulation EF1: Dose normalised Cmax (μM): 0.023 (Oral dose (mg/kg): 100); Dose normalised AUC0-12 (μM.h): 0.22 (Oral dose (mg/kg): 100) | (e) Formulation EF2: Dose normalised Cmax (μM): 0.002 (Oral dose (mg/kg): 100); Dose normalised AUC0-12 (μM.h): 0.009 (Oral dose (mg/kg): 100) | (e) Formulation EF3: Dose normalised Cmax (μM): 0.045 (Oral dose (mg/kg): 100); Dose normalised AUC0-12 (μM.h): 0.12 (Oral dose (mg/kg): 100); Dose normalised Cmax (μM): 0.016 (Oral dose (mg/kg): 30); Dose normalised AUC0-12 (μM.h): 0.06* (Oral dose (mg/kg): 30); Dose normalised Cmax (μM): 0.017 (Oral dose (mg/kg): 10); Dose normalised AUC0-12 (μM.h): 0.06* (Oral dose (mg/kg): 10) | (e) Formulation EF4: Dose normalised Cmax (μM): 0.022 (Oral dose (mg/kg): 100); Dose normalised AUC0-12 (μM.h): 0.10 (Oral dose (mg/kg): 100) | (e) Formulation EF5: Dose normalised Cmax (μM): 0.050 (Oral dose (mg/kg): 100); Dose normalised AUC0-12 (μM.h): 0.25 (Oral dose (mg/kg): 100); Dose normalised Cmax (μM): 0.013 (Oral dose (mg/kg): 30); Dose normalised AUC0-12 (μM.h): 0.045* (Oral dose (mg/kg): 30); Dose normalised Cmax (μM): 0.023 (Oral dose (mg/kg): 10); Dose normalised AUC0-12 (μM.h): 0.076* (Oral dose (mg/kg): 10)\nEach plasma sample ([…]) was prepared using an appropriate dilution factor, and compared against an 11-point standard calibration curve (1-10000 nM) prepared in DMSO and spiked into blank plasma. Acetonitrile ([…]) was added with the internal standard, followed by centrifugation at 3000 rpm for 10 minutes. The supernatant ([…]) was then diluted in […] acetonitrile:water (75:25) and analyzed via UPLC-MS/MS.\nThe MS/MS instrument used was either a Waters XEVO® TQ-S, Waters XEVO® TQ-D, or API 4000 (AB Sciex). The ultra-mass spectrometer used for sample analysis was completed in the MRM mode (MS/MS). Reverse-phase HPLC with a C18 column was used to separate the analytes. A mobile phase of 99% water/0.1% formic acid (solvent A) and a solvent phase of 99% acetonitrile/0.1% formic acid (solvent B) was used. A generic LC gradient elution was used at a flow rate of 0.5 mL/min with 95% solvent A and 5% solvent B for 0.3 min after which the concentration of solvent B was increased to 95% over 0.9 min before restoring it back to 5% for the remaining 0.5 min. Mass spectrometer methods were optimised for each compound."}, "[2]": {"assay": "Mouse microsome intrinsic clearance", "format": "in vitro ADME", "experimental": "Mouse liver microsomes (Male CD-1) are obtained from Corning at a concentration of 20 mg/mL protein. The test compound was prepared to 10 mM in 100% DMSO and further diluted to 100 μM in 100% acetonitrile. The microsomal incubations were prepared in phosphate buffered solution pH 7.4 containing 1 mg/mL microsomal protein, 1 mM NADPH and a final compound concentration of 1 μM. Following a pre-incubation with NADPH for 8 min, reactions were initiated through the addition of the test compound (final volume 250 µL) and incubated at 37 °C in a water bath for 30 min. At each time point (0.5, 5, 10, 15, 20, 30 min) 20 μL of incubation mixture was quenched with 100 μL of 100% ice cold acetonitrile. Samples were shaken at 800 rpm for 2 min and centrifuged at 4000 rpm for 20 min at 4 °C to pellet precipitated protein. The supernatant fraction was diluted 1:5 with deionised water, shaken at 1000 rpm for 2 min, and further diluted 1:1 with deionised water. Samples were analysed by LC-MS/MS[17]."}, "MCF7 cells": {"tested_on": "MCF7 cells", "assay": "Cell proliferation assay (Sytox Green), MCF7", "format": "cell-based", "conditions": "Homo sapiens, 144 h; MCF7, 6 days; read-out: growth inhibition IC50", "experimental": "Cell proliferation was assessed by measuring live cell numbers using the Sytox Green assay. MCF7 and CAMA1 cells were seeded in 96-well clear-bottom black microplates (Costar) at 4x10^3 and 8x10^3 cells per well, respectively, based on the doubling time of each cell line. Plates were incubated at 37 °C, 5% CO2 for 24 hours prior to being treated with DMSO, AZ’6421 or fulvestrant in a 10-point concentration range, with a final DMSO concentration of 0.1%. A single plate was left untreated, designated a Day 0 plate. The number of live cells was determined at Day 0 and Day 7 using the Sytox green assay. Briefly, 5 mM Sytox green nucleic acid dye (Invitrogen) was diluted 1:2500 in 500 mM tris-buffered saline (TBS) with ethylenediaminetetraacetic acid (EDTA) and 7 μL was added per well. Plates were then incubated in the dark at room temperature for 1 hour and the number of green cells in each well (dead cells) was measured using an Acumen Explorer high-throughput cell imager (TTP Labtech). Next, 14 μL of 0.25% w/v Saponin in TBS/EDTA solution was added overnight to permeabilize the cells, permitting a total cell count. The number of live cells was calculated by subtracting the dead cell count from the total cell count. The data obtained were then used to perform curve fitting analysis using GraphPad Prism. Average cell counts from the Day 0 plate were used to determine 0% cell growth. […]"}}, "note": "Read-outs that look alike come from different tables or passages of the source.", "data": [{"smiles": "Cc1ncsc1-c1ccc(CNC(=O)[C@@H]2C[C@@H](O)CN2C(=O)[C@@H](NC(=O)COCCCOCCCOc2cc(F)c([C@@H]3c4[nH]c5ccccc5c4C[C@@H](C)N3CC(C)(C)F)c(F)c2)C(C)(C)C)cc1", "note": "[Compound 5]", "values": [{"measurement": "Plasma conc (total)", "setting": "[1]; IV 0.5 mg/kg, mouse, 0.03 h, listed as AZ'6421, 0.5 mg/kg", "result": 1770, "unit": "nM"}, {"measurement": "Plasma conc (total)", "setting": "[1]; IV 0.5 mg/kg, 0.17 h, listed as AZ'6421, 0.5 mg/kg", "result": 219, "unit": "nM"}, {"measurement": "Plasma conc (total)", "setting": "[1]; IV 0.5 mg/kg, 0.5 h, listed as AZ'6421, 0.5 mg/kg", "result": 58.2, "unit": "nM"}, {"measurement": "Plasma conc (total)", "setting": "[1]; IV 0.5 mg/kg, 1 h, listed as AZ'6421, 0.5 mg/kg", "result": 27.9, "unit": "nM"}, {"measurement": "Plasma conc (total)", "setting": "[1]; IV 0.5 mg/kg, 2 h, listed as AZ'6421, 0.5 mg/kg", "result": 15.2, "unit": "nM"}, {"measurement": "Plasma conc (total)", "setting": "[1]; IV 0.5 mg/kg, 4 h, listed as AZ'6421, 0.5 mg/kg", "result": 6.74, "unit": "nM"}, {"measurement": "Plasma conc (total)", "setting": "[1]; IV 0.5 mg/kg, 6 h, listed as AZ'6421, 0.5 mg/kg", "result": 4.38, "unit": "nM"}, {"measurement": "Plasma conc (total)", "setting": "[1]; IV 0.5 mg/kg, 8 h, listed as AZ'6421, 0.5 mg/kg", "result": 2.82, "unit": "nM"}, {"measurement": "Plasma conc (total)", "setting": "[1]; Oral 1 mg/kg in SF, mouse, 0.5 h, listed as AZ'6421, 1 mg/kg", "result": 4.03, "unit": "nM"}, {"measurement": "Plasma conc (total)", "setting": "[1]; Oral 1 mg/kg in SF, 1 h, listed as AZ'6421, 1 mg/kg", "result": 6.69, "unit": "nM"}, {"measurement": "concentration at 0.03 h", "setting": "[1]; mouse, plasma, iv, 0.5 mg/kg, IV 0.5 mg/kg, mouse, 0.03 h, read-out: Plasma conc (total)", "result": 1990, "unit": "nM"}, {"measurement": "concentration at 0.17 h", "setting": "[1]; mouse, plasma, iv, 0.5 mg/kg, IV 0.5 mg/kg, 0.17 h, read-out: Plasma conc (total)", "result": 261, "unit": "nM"}, {"measurement": "concentration at 0.5 h", "setting": "[1]; mouse, plasma, iv, 0.5 mg/kg, IV 0.5 mg/kg, 0.5 h, read-out: Plasma conc (total)", "result": 89, "unit": "nM"}, {"measurement": "concentration at 1 h", "setting": "[1]; mouse, plasma, iv, 0.5 mg/kg, IV 0.5 mg/kg, 1 h, read-out: Plasma conc (total)", "result": 41.9, "unit": "nM"}, {"measurement": "concentration at 2 h", "setting": "[1]; mouse, plasma, iv, 0.5 mg/kg, IV 0.5 mg/kg, 2 h, read-out: Plasma conc (total)", "result": 16.9, "unit": "nM"}, {"measurement": "concentration at 4 h", "setting": "[1]; mouse, plasma, iv, 0.5 mg/kg, IV 0.5 mg/kg, 4 h, read-out: Plasma conc (total)", "result": 7.09, "unit": "nM"}, {"measurement": "concentration at 6 h", "setting": "[1]; mouse, plasma, iv, 0.5 mg/kg, IV 0.5 mg/kg, 6 h, read-out: Plasma conc (total)", "result": 3.27, "unit": "nM"}, {"measurement": "concentration at 8 h", "setting": "[1]; mouse, plasma, iv, 0.5 mg/kg, IV 0.5 mg/kg, 8 h, read-out: Plasma conc (total)", "result": 2.02, "unit": "nM"}, {"measurement": "clearance", "setting": "[1]; mouse, plasma, iv, 0.5 mg/kg i.v., read-out: mouse in vivo clearance", "result": 22, "unit": "mL/min/kg"}, {"measurement": "concentration at 0.5 h", "setting": "[1]; mouse, plasma, po, 1 mg/kg, Oral 1 mg/kg in SF, mouse, 0.5 h, read-out: Plasma conc (total)", "result": 2.24, "unit": "nM"}, {"measurement": "concentration at 1 h", "setting": "[1]; mouse, plasma, po, 1 mg/kg, Oral 1 mg/kg in SF, 1 h, read-out: Plasma conc (total)", "result": 9.06, "unit": "nM"}, {"measurement": "concentration at 4 h", "setting": "[1]; mouse, plasma, po, 1 mg/kg, Oral 1 mg/kg in SF, 4 h, read-out: Plasma conc (total)", "result": 2.98, "unit": "nM"}, {"measurement": "AUC", "setting": "[1]; plasma, po, 1 mg/kg p.o., SF, mouse, read-out: oral exposure (AUC)", "result": 0.02, "unit": "µM·h"}, {"measurement": "mouse liver microsomes stability", "setting": "[2]", "result": 22, "unit": "µL/min/mg protein"}, {"measurement": "IC50", "setting": "MCF7 cells", "result": 0.5, "unit": "nM"}]}]}
